Drawing on ChEMBL document CHEMBL1155922, “Epiboxidine and novel-related analogues: a convenient synthetic approach and estimation of their affinity at neuronal nicotinic acetylcholine receptor subtypes” (Bioorg Med Chem Lett, 2008), this text covers Ki and Ratio Ki for four compounds.

The target of assay [1] is Neuronal acetylcholine receptor subunit alpha-7 (Rattus norvegicus, UniProt Q05941). The assay is described as follows: Displacement of [125I]alpha-bungarotoxin from alpha7 nAChR in rat cortical membrane. The assay is classed as cell membranes. On the technique in general: In a radioligand displacement assay an active substance lowers the binding of a labelled ligand.
Assay [2] addresses T1, Neuronal acetylcholine receptor; alpha4/beta2 (Rattus norvegicus, UniProt P09483+P12390). The assay is described as follows: Displacement of [3H]epibatidine from alpha4beta2 nAChR in rat cortical membrane. The assay is classed as cell membranes.
The species entered for another assay is Rattus norvegicus. The assay is described as follows: Selectivity ratio of Ki for rat alpha4beta2 nAChR to Ki for rat alpha7 nAChR.
In assay [3] the target is T2, Neuronal acetylcholine receptor; alpha4/beta2 (Homo sapiens, UniProt P17787+P43681). The assay is described as follows: Binding affinity to alpha4beta2 nAChR. The assay is classed as protein-complex assay.
Assay [4] has as its target T1, Neuronal acetylcholine receptor; alpha4/beta2. The experiment in a line: Displacement of [3H]nicotine from alpha4beta2 nAChR in rat cerebral membrane. The class given is cell membranes.
Assay [5] concerns the target T2, Neuronal acetylcholine receptor; alpha4/beta2. The experiment in a line: Displacement of [3H]cystisine from alpha4beta2 nAChR. The class given is protein-complex assay.

Neuronal acetylcholine receptor subunit alpha-7, sequence (Q05941 whole entry): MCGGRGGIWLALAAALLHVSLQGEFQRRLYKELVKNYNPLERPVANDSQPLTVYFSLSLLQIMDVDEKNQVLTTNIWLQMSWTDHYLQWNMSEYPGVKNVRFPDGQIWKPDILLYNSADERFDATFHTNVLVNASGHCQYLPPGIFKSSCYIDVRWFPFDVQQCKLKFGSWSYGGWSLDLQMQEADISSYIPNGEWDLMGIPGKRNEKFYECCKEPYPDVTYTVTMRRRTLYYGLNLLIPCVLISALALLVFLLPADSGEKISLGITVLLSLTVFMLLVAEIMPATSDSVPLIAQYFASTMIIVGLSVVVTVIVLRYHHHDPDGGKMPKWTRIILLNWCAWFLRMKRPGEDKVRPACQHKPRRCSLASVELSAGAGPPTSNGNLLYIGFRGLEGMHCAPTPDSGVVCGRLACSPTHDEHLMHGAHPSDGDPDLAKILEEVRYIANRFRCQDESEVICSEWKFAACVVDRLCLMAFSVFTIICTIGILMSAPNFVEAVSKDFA
T1 sequence (P09483 whole entry): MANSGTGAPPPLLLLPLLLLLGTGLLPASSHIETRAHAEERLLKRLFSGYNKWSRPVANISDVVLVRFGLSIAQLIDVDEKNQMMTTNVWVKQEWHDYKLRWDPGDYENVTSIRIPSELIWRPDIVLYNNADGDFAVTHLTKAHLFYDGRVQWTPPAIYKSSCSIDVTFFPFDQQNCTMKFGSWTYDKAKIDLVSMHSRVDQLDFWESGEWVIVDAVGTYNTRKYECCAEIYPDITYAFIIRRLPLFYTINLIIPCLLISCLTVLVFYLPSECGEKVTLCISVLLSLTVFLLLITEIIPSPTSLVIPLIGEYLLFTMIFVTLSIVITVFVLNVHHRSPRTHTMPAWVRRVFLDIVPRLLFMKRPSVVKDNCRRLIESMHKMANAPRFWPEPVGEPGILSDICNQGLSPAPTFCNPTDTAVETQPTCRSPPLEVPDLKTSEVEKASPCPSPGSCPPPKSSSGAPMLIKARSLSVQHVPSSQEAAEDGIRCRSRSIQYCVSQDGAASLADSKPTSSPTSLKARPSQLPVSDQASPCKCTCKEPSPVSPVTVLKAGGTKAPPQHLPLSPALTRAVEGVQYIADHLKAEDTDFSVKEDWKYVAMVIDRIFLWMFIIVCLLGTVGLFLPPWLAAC
T1 sequence (P12390 whole entry): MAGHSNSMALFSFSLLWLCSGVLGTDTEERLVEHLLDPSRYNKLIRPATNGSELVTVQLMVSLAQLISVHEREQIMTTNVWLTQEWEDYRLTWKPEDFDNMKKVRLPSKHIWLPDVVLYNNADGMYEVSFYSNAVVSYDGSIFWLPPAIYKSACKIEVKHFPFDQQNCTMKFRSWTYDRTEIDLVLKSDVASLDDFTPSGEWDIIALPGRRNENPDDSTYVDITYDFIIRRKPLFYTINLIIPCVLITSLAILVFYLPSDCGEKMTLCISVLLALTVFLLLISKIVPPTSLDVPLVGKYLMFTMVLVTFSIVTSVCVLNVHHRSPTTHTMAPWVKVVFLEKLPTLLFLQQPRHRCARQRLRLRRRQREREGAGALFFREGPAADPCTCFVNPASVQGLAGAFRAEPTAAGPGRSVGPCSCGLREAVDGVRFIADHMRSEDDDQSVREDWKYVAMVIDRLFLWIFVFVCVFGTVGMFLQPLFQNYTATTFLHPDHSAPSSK
T2 sequence (P17787 whole entry): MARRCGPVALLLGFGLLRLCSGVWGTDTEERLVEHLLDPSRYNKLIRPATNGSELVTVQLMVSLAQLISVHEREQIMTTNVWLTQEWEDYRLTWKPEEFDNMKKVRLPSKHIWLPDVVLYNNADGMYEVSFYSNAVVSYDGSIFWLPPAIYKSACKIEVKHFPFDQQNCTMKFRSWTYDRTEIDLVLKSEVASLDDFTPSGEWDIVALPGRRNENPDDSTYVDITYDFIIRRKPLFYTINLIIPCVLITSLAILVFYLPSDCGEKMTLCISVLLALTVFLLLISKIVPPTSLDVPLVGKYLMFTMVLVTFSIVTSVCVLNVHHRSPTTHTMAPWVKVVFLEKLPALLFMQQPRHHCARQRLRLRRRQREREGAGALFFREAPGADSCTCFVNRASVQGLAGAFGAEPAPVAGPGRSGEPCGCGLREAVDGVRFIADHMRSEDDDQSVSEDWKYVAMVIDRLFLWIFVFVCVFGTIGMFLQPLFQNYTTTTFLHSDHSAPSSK
T2 sequence (P43681 whole entry): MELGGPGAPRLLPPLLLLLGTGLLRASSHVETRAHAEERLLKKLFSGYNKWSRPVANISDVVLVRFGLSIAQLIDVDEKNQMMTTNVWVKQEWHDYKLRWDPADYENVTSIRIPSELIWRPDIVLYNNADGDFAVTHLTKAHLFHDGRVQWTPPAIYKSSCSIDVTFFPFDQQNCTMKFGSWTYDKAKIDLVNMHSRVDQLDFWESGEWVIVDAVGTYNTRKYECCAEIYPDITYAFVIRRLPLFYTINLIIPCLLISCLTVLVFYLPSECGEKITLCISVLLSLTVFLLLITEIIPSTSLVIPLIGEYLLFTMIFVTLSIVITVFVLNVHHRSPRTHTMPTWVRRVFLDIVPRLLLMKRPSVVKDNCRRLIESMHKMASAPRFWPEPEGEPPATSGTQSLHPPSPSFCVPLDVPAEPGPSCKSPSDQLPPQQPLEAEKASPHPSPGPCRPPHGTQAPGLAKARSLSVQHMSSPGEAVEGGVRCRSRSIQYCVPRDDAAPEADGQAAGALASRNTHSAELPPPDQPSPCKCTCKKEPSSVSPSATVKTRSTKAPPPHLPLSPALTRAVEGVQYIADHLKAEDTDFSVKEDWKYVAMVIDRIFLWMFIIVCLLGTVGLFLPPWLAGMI

By Ki is commonly meant a dissociation constant, usually derived from enzyme kinetics or from competition with a known ligand. High values mean lower affinity, low ones higher affinity. In the case of `Cc1cc([C@@H]2C[C@H]3CC[C@H]2N3)on1` (racemic) [ENDO-EPIBOXIDINE], the values for the Ki in assay [1] and in assay [2] were 230 nM and 70 nM, respectively.

For the compound `Cc1cc([C@H]2C[C@H]3CC[C@H]2N3)on1` (racemic) [EXO-EPIBOXIDINE], the Ki in assay [1] turned out to be 6 nM; in assay [2], 0.4 nM; in assay [3], 0.46 nM; in assay [4] it was 0.6 nM; in assay [5], 1.33 nM. Further, the Ratio Ki in the assay filed under Rattus norvegicus came out at 15.

For the compound `Cc1cc(C2=CC3CCC2N3C)on1` (racemic), the figures for the Ki in assay [1] and in assay [2] were 394 nM and 514 nM, respectively.

In the case of `Cc1cc(C2=CC3CCC2N3)on1` (racemic), the Ki in assay [1] was determined as 1600 nM; in assay [2] it was 50 nM. Moreover, the Ratio Ki in the assay filed under Rattus norvegicus amounted to 32.
